Results taken from patent publication US11603387B2, “SOCS mimetics for the treatment of diseases” (UNIVERSITY OF FLORIDA RESEARCH FOUNDATION, INC., priority 2014, dated 2023).

Tests used:
EAE = conditions: administered in vivo; cited from earlier work
[1] = system: SOCS1+/+ or SOCS1+/− CD4+CD25− T cells; assay: CD4+ T cell proliferation (CFSE labeling, cell counts, 3H thymidine incorporation); assay type: cell-based, mouse; conditions: αCD3 + SOCS1-KIR peptide (20 μM), 72 h
Procedure: (§1) FIGS. 5A-5D. […] (FIGS. 5A and 5B) SOCS1^+/+ or SOCS1^+/− CD4^+CD25^− T cells were stimulated with αCD3 antibodies alone or with αCD3+SOCS1-KIR peptide (20 μM) for 72 h. (FIG. 5A) CD25 expressing cells were assessed by flow cytometry. Results are representative of 4 independent experiments. (FIG. 5B) Proliferation was assessed by CFSE labeling and flow cytometry, cell counts, and ^3[H] thymidine incorporation. n=4. (FIGS. 5C and 5D) SOCS1^+/+ or SOCS1^+/− CD4^+CD25^− T cells were placed under Th17 inducing conditions in the absence or presence of SOCS1-KIR peptide (20 μM) (FIG. 5C) IFNγ expression, relative to β-actin., was assessed by qPCR (left) and ELISA (right) (n=4). (FIG. 5D) pSTAT1 and STAT1 protein expressions were assessed by western blotting. Results are representative of 4 independent experiments. Statistical comparisons were performed using Mann-Whitney U test. (*P<0.05). iTh17=Th17 inducing conditions, WT=SOCS1^+/+, and HT=SOCS1^+/−.
CD4^+ T cell proliferation was assessed by CFSE staining, ^3H thymidine incorporation, and absolute cell counts. MACS purified CD4^+CD25^− T cells, isolated from LN and spleen suspension, were stimulated in triplicate (96 well round-bottom plate; 1×10^5 cells/well) with 10 μg/ml anti-CD3 (BD Pharmingen; clone: 145.2C11) alone or in addition to 1.5 μg/ml anti-CD28 (BD Pharmingen; clone 37.51) at 37° C. (5% CO2) in RPMI 1640 (Cellgro; 10-040-CV) containing 10% FBS (INVITROGEN™ GIBCO®), 1% antibiotic/antimycotic (Herndon, Va.), and 50 μM β-ME (MP Biomedicals, Solon, Ohio). After 72 h of incubation, cell cultures were either pulsed with 0.5 mCi ^3H thymidine (GE Healthcare; Arlington Heights, Ill.) or counted and harvested for assessment by flow cytometry. In cultures analyzed by flow cytometry, T lymphocytes were labeled with 10 μg/ml CFSE prior to culture as previously described (Cozzo et al. 2003). ^3H thymidine pulsed T lymphocytes were harvested 16-18 hours after initial pulse followed by the ^3H thymidine incorporation assessment using a Beckman LS3801 Liquid Scintillation System. […]

IFNγ = IFNγ expression by qPCR and ELISA under Th17 inducing conditions; assay type: cell-based, mouse; conditions: SOCS1-KIR peptide (20 μM)
Procedure: as §1
CD4^+CD25^− T lymphocytes (1×10^5/well) were cultured in triplicate at 37° C. (5% CO2) in RPMI 1640 (Cellgro 10-040-CV) containing 10% FBS (INVITROGEN™ GIBCO®) 1% antibiotic/antimycotic (Herndon, Va.), and 50 μM β-ME (MP Biomedicals, Solon, Ohio). […] Cells were incubated for 72 hours and assessed for Treg differentiation by ICS for Foxp3. […] Cells were collected after 5 days and assessed for activation and Th17 differentiation. […]

DTHFRTFRSHSDYRRI (SOCS1-KIR peptide) [SOCS1 mimetic peptide corresponding to the KIR region of SOCS1]
Immune homeostasis and EAE prevention (EAE): could both regulate immune homeostasis and prevent EAE | Activation and proliferation of αCD3 treated SOCS1+/− CD4+ T lymphocytes relative to WT ([1]; SOCS1+/− cells): to levels comparable to WT receiving αCD3 stimulation | Proliferation by CFSE labeling ([1]; WT and SOCS1+/− T lymphocytes): reduced proliferation | Absolute cell counts and 3H thymidine incorporation [1]: inhibition of T lymphocyte proliferation | Reduction in IFNγ protein production (IFNγ; ELISA): 2 fold | Reduction in IFNγ mRNA expression (IFNγ; qPCR relative to β-actin): 2 fold
